# Results from patent EP0726944B1, “GL[…] NON-GLYCOSYLATED BACTERICIDAL/PE[…], AND METHODS FOR PRODUCING SAME” (INCYTE PHARMACEUTICALS, INC., priority 1993, dated 1995).
# Several values for one entry are separate records, joined by “and”; a condition that tells them apart may be missing. Equal entries are not always repeated.
# Legend:
# [1] = format: binding; details: data not shown
# Protocol: BPI Protein binds to LPS (data not shown). In these experiments, 4 µg of LPS/well was immobilized on 96 well plastic plates, then incubated with varying concentrations of BPI Protein, and developed with anti-BPI Protein polyclonal antisera. […]
# mice = experiment: Intranasal LPS challenge, TNFα in broncheoalveolar lavage fluid; format: in vivo; set-up: TNFα level in Broncheoalveolar Lavage Fluid, individual mouse: unit not given here; details: Polymyxin B 1.0µg (782 pmol) intranasal 20 minutes before LPS, BAL 1 hour after challenge
# Protocol: Normal anesthetized mice were challenged by the intranasal route with 10 ng/ml E. coli 0111:B4 LPS (results in Table 10). Twenty minutes before challenge, anesthetized mice were treated by the intranasal route with 50µl saline, BPI Protein or polymyxin B solution. At one hour after LPS challenge, mice were re-anesthetized, and 0.7 ml of saline containing 1% human serum albumin was added to the lungs via the trachea. The lungs were gently kneaded. A 0.5 ml volume broncheoalveolar lavage (BAL) fluid was aspirated, cells were pelleted by centrifugation, and the BAL sample was stored at -70°C. The TNFα level in the BAL fluid was determined by measuring cytotoxicity towards WEHI clone 13 mouse fibrosarcoma cells and is summarized in Table 10. Human rTNFα (Chiron) was used as the standard.
# Human Monocytes [2] = experiment: LPS-induced TNF production by adherent peripheral blood mononuclear cells, ELISA; format: cell-based; details: Table 8; 1000 ng/ml Polymyxin B; 0.1 % w/v killed S. aureus
# human neutrophils = experiment: Neutrophil stimulation by LPS: CR1/CR3 upregulation, flow cytometry; format: cell-based; details: stoichiometric calculation
# Protocol: Venous blood was drawn from healthy volunteer donors into acid citrate dextrose anticoagulant and immediately placed on ice. Five parts blood were mixed with 1 part cold Macrodex, and allowed to settle for 1.5 - 2 hours at 4°C. Leukocyte-rich plasma was washed 1X in cold HBSS, then resuspended in HBSS and layered over Ficoll-Paque. If significant erythrocyte contamination was present, the granulocyte pellet was subjected to hypotonic lysis. The cells were washed 2X in HBSS and resuspended in HBSS + 2% autologous plasma to give a final granulocyte concentration of 1 X 10^6/ml in the incubation mixture.
# Isolated neutrophils were kept on ice until incubated with and without stimuli at 37°C for 30 minutes. Following the incubation, cells were washed in a large volume of cold PBS + 0.05% Na Azide + 2% autologous plasma. […] Following a 30 minute incubation at 0°C and 2 more washes, the cells were analyzed by flow cytometry on a Becton Dickinson FACStar flow cytometer (Becton Dickinson, Mountain View, CA). […]
# Human neutrophils may be stimulated both in vivo and in vitro by lipopolysaccharide. […] Using the Fluorescence Activated Cell Sorter (FACS), fluorescence intensity of freshly isolated human neutrophils was measured following stimulation with increasing doses of 0111:B4 LPS (data not shown). […]
# Human Monocytes [3] = experiment: LPS-induced TNF production by adherent peripheral blood mononuclear cells, ELISA; format: cell-based
# Protocol: Human peripheral blood mononuclear cells were isolated on Ficoll-Paque (Pharmacia) gradients, washed 2X in pyrogen-free HBSS (Hazelton), and resuspended at 5 X 10^6/ml in RPMI (Gibco) media without serum. Two hundred µl of this cell suspension was incubated in each well of flat-bottom 96-well tissue culture dishes (Costar) for 2 hours at 37°C. Nonadherent cells were removed by washing 2X with RPMI + 10% autologous heat inactivated serum. Adherent mononuclear cells were stimulated with E. coli 0111:B4 LPS which had been preincubated for 30 minutes at 37°C with buffer, BPI Protein or polymyxin B (Gibco; 7900 U/ml). Supernatants were harvested four hours after LPS mixtures were added. Secretion of TNFα was quantitated by ELISA (Endogen) (results at Table 9).
# BPI Protein produced in soluble form at low temperature in E. coli and purified as described above in purification process A was tested for inhibition of endotoxin-mediated TNF induction by human adherent mononuclear cells. Blood collected in acid citrate dextrose containing vacutainer tubes (Becton Dickinson, Rutherford, NJ) was diluted in Hank's balanced salt solution (HBSS) minus Ca^+2 and Mg^+2. Mononuclear cells were separated using Ficol-Paque (Pharmacia Inc., Piscataway, N.J.), collected and washed three times in HBSS, and the proportion of monocytes was estimated by microscopic examination. Cells were brought up to an appropriate volume of RPMI 1640 with glutamine and antibiotics and without serum to give approximately 1 x 10^6 monocytes/ml. Cells were plated into 96 11 flat bottom tissue culture plates (Costar, Cambridge, MA), 200 µl/well, and incubated for two hours at 37°C in a humidified incubator with […]. Cells were then washed three times in warm RPMI 1640 without serum. After the last wash was aspirated, 200 µl/well RPMI 1640 with 10% autologous heat-inactivated serum was added. To each well was then added the 22µl of 10X solution of E. coli endotoxin preincubated in buffer, polymyxin B, or BPI Protein. Cells were incubated with the endotoxin mixture for four hours at 37°C, then the supernatants were collected and assayed for TNFα antigen by ELISA (Endogen, Inc., Boston, MA) (Figure 12) .
substance,measurement,setting,value
Polymyxin B,inhibition of BPI Protein binding to LPS,[1],inhibited
same,"TNFα level in Broncheoalveolar Lavage Fluid, Mean ± SD",mice,253 ± 251
same,"TNFα level in Broncheoalveolar Lavage Fluid, individual mouse",mice; mice 1-5,74 and 50 and 132 and 370 and 640
same,TNF Produced in Response to S. aureus Preincubated with substance,Human Monocytes [2],1685 ± 121 pg/mL
same,calculated amount of PMB required to inhibit 10 ng/ml of smooth LPS,human neutrophils,approximately 0.67 nM
same,TNF Produced in Response to LPS Preincubated with substance,"Human Monocytes [3]; Table 5, 100 ng/ml, LPS 0 ng/ml",0 pg/mL
same,TNF Produced in Response to LPS Preincubated with substance,"Human Monocytes [3]; Table 5, 100 ng/ml, LPS 0.1 ng/ml",0 pg/mL
same,TNF Produced in Response to LPS Preincubated with substance,"Human Monocytes [3]; Table 5, 100 ng/ml, LPS 1 ng/ml",96 pg/mL
same,TNF Produced in Response to LPS Preincubated with substance,"Human Monocytes [3]; Table 5, 100 ng/ml, LPS 10 ng/ml",2154 pg/mL
same,TNF Produced in Response to LPS Preincubated with substance,"Human Monocytes [3]; Table 5, 500 ng/ml, LPS 0 ng/ml",0 pg/mL
same,TNF Produced in Response to LPS Preincubated with substance,"Human Monocytes [3]; Table 5, 500 ng/ml, LPS 0.1 ng/ml",0 pg/mL
same,TNF Produced in Response to LPS Preincubated with substance,"Human Monocytes [3]; Table 5, 500 ng/ml, LPS 1 ng/ml",0 pg/mL
same,TNF Produced in Response to LPS Preincubated with substance,"Human Monocytes [3]; Table 5, 500 ng/ml, LPS 10 ng/ml",1490 pg/mL
same,TNF Produced in Response to LPS Preincubated with substance,"Human Monocytes [3]; Table 7, 100 ng/ml PMB, LPS 0 ng/ml",0 pg/mL
same,TNF Produced in Response to LPS Preincubated with substance,"Human Monocytes [3]; Table 7, 100 ng/ml PMB, LPS 0.1 ng/ml",79 pg/mL
same,TNF Produced in Response to LPS Preincubated with substance,"Human Monocytes [3]; Table 7, 100 ng/ml PMB, LPS 1 ng/ml",1207 pg/mL
same,TNF Produced in Response to LPS Preincubated with substance,"Human Monocytes [3]; Table 7, 100 ng/ml PMB, LPS 10 ng/ml",1270 pg/mL
same,TNF Produced in Response to S. aureus Preincubated with substance,"Human Monocytes [3]; Table 8, 100 ng/ml Polymyxin B, 0.1 % w/v killed S. aureus",1541 ± 397 pg/mL
same,TNF Produced in Response to LPS Preincubated with substance,"Human Monocytes [3]; Table 8, 100 ng/ml Polymyxin B, LPS 10 (unit not given)",601 ± 257 pg/mL
same,TNF Produced in Response to LPS Preincubated with substance,"Human Monocytes [3]; Table 8, 100 ng/ml Polymyxin B, LPS 100 (unit not given)",1140 ± 73 pg/mL
same,TNF Produced in Response to LPS Preincubated with substance,"Human Monocytes [3]; Table 8, 100 ng/ml Polymyxin B, LPS 1000 (unit not given)",1016 ± 20 pg/mL
same,TNF Produced in Response to LPS Preincubated with substance,"Human Monocytes [3]; Table 8, 1000 ng/ml Polymyxin B, LPS 10 (unit not given)",333 ± 18 pg/mL
same,TNF Produced in Response to LPS Preincubated with substance,"Human Monocytes [3]; Table 8, 1000 ng/ml Polymyxin B, LPS 100 (unit not given)",769 ± 101 pg/mL
same,TNF Produced in Response to LPS Preincubated with substance,"Human Monocytes [3]; Table 8, 1000 ng/ml Polymyxin B, LPS 1000 (unit not given)",844 ± 144 pg/mL
